Test results published in patent US20160326098A1, “Pharmaceutically Active Compound for Use as Anti-inflammatory Agent” (Pax Forschung GmbH, priority 2013, published 2016).

How the values were obtained:
Assay type in all cases: in vivo
nitrite/nitrate (NOx) [1] = assay: Tissue nitrite/nitrate level, mice with gastric injury without inflammation; details: gastric and duodenal tissue, 1.11 mmol/kg, vs control group A and group C, FIGS. 7a/7b
Protocol: […] This assay depends on the reduction of nitrate to nitrite, which is then converted into a colored azo dye compound that is detected spectrophotometrically at 540 nm.
First experiments regarding the effect of the compound of formula (I) and a pharmaceutical composition comprising the compound of formula (I) (clear aqueous solution of compound of formula (I) at pH 4.8), respectively, on gastric injury without inflammation were conducted on mice. 48 animals were randomly allocated into three groups. Group A (n=16) served as sham-operated controls. Samples of all animals were drawn on day 1 of the clinical tests. On day 2 the animals of group B (n=16) were force-fed acetylsalicylic acid (ASS) (1.11 mmol/kg body weight). Group C (n=16) was force-fed 1.11 mmol/kg body weight of the compound according to the invention. Group A only received the respective solvent (25% ethanol in water). One day after the gavage, additional samples were drawn. Fluorescence confocal endomicroscopy was performed to examine the microvasculature and morphologic changes of the mucosa of the distal colon, and full-thickness tissue samples and venous blood samples were taken to determine the biochemical changes in the colon and plasma. The effects were determined by way of measurement of body weight, blood gas analysation and biopsy. […]

[2] = tested on: High mobility group box protein 1 (HMGB-1); assay: Plasma high-mobility group protein B1, rats with TNBS-induced colitis; details: 1.11 mmol/kg, day 3, FIG. 31
Protocol: (§1) Colonic inflammation was induced by intracolonic administration of TNBS (2,4,6-trinitrobenzenesulfonic acid) (40 mg/kg in 0.25 ml of 25% aqueous ethanol) through an 8-cm-long soft plastic catheter under transient diethylether anesthesia. In the sham-operated groups, only the vehicle for TNBS was administered. The animals were deprived of food, but not water, for 12 h before the enemas.
High mobility group box protein 1 (HMGB-1) measurements in plasma:
Blood samples were drawn into chilled polypropylene tubes containing EDTA (1 mg/ml) and were centrifuged at 1200 g for 10 min at 4° C. The plasma samples were then collected and stored at −70° C. until assay. Plasma concentration of HMGB-1 was measured by a commercially available HMGB-1 ELISA kit (Shino-Test Corporation, Kanagawa, Japan).
The above-described clinical studies were repeated with animals having colitis which was induced as described above. […] Two days after the enema the effects of the treatment were determined by measurement of body weight, blood gas analysis and biopsy. […] Surgery was performed to allow registration of the hemodynamic parameters at 1 h intervals for 6 h (cardiac output [CO] data were measured only at the end of the experiments). […]

nitrite/nitrate (NOx) [3] = assay: Tissue nitrite/nitrate level, mice with TNBS-induced colitis; details: gastric and colon tissue, 1.11 mmol/kg, FIGS. 15a/15b
Protocol: as §1
The levels of plasma nitrite/nitrate (NOx), stable end products of NO were measured by the Griess reaction. This assay depends on the reduction of nitrate to nitrite, which is then converted into a colored azo dye compound that is detected spectrophotometrically at 540 nm.
The above-described clinical studies were repeated with animals having colitis which was induced as described above. […] Two days after the enema the effects of the treatment were determined by measurement of body weight, blood gas analysis and biopsy. […] Surgery was performed to allow registration of the hemodynamic parameters at 1 h intervals for 6 h (cardiac output [CO] data were measured only at the end of the experiments). […] In addition, fluorescence confocal endomicroscopy was performed to examine the microvasculature and morphologic changes of the mucosa of the distal colon, and full-thickness tissue samples and venous blood samples were taken to determine the biochemical changes in the colon and plasma.

myeloperoxidase (MPO) = assay: Tissue myeloperoxidase activity, mice with TNBS-induced colitis; details: gastric and colon tissue, 1.11 mmol/kg, one day after treatment, vs untreated colitis and ASS groups, FIGS. 13a/13b
Protocol: as §1
Colon biopsies kept on ice were homogenized in phosphate buffer (pH 7.4) containing 50 mM Tris-HCl (Reanal, Budapest, Hungary), 0.1 mM EDTA, 0.5 mM dithiothreitol, 1 mM phenylmethylsulfonyl fluoride, 10 μg/ml soybean trypsin inhibitor, and 10 μg/ml leupeptin (Sigma Aldrich GmbH, Munich, Germany). […] The activity of myeloperoxidase (MPO) was measured on the pellet of the homogenate.
The activity of MPO as a marker of tissue leukocyte infiltration was measured on the pellet of the homogenate. […] The reaction led to the hydrogen peroxide-dependent oxidation of tetramethylbenzidine, which could be detected spectrophotometrically at 450 nm (UV-1601 spetrophotometer; Shimadzu, Kyoto, Japan). Myeloperoxidase activities were measured at 37° C.; the reaction was stopped after 5 minutes by the addition of 0.2 ml of H2SO4 (2 M), and the resulting data were referred to the protein content. […]

SMILES	nitrite/nitrate level (nitrite/nitrate (NOx) [1])	concentration of the high-mobility group protein B1 in the plasma [2]	nitrite/nitrate level (nitrite/nitrate (NOx) [3])	myeloperoxidase enzyme activity (myeloperoxidase (MPO))
CC(=O)Oc1ccccc1C(=O)O [ASS, acetylsalicylic acid, reference compound]	significant difference in the nitrite/nitrate level			
CC(=O)Oc1ccccc1C(=O)NC(CO)(CO)CO [compound according to the invention]		significant reduction	nitrite/nitrate levels comparable to those of healthy animals	decrease of activity
